The results in this text go back to ChEMBL document CHEMBL1150252, “Heteroaromatic ester inhibitors of hepatitis A virus 3C proteinase: Evaluation of mode of action” (Bioorg Med Chem, 2008).

Each structure is given as a SMILES string. Bounds are passed on as bounds.

Assay [1] concerns Hepatovirus A. In words: Inhibition of hepatitis A virus 3C proteinase at 1 uM by microplate assay.
The subject of assay [2] is Hepatovirus A. In words: Inhibition of hepatitis A virus 3C proteinase at 10 uM by microplate assay.

Take `Cc1ccc(C(=O)Oc2cncc(Cl)c2)cc1`: the values for the inhibition in the assay with Hepatovirus A [1] and in the assay on Hepatovirus A [2] were 70% and 77%, respectively.

In the assay with Hepatovirus A [2], `O=C(Oc1cncc(Cl)c1)c1c[nH]c2ccccc12` yielded an inhibition of 13%.

Compound `CCN(CC)c1ccc(C(=O)Oc2cncc(Cl)c2)cc1` registered an inhibition in the assay on Hepatovirus A [2] of 64%.

In the case of `Cc1ccc(OC(=O)c2cccs2)c([N+](=O)[O-])n1`, the inhibition in the assay on Hepatovirus A [2] is 14%.

Take `Cc1ccsc1C(=O)Oc1cncc(Cl)c1`: in the assay on Hepatovirus A [2], the inhibition was less than 10%.

For the compound `O=C(Oc1ccc(Cl)nc1)c1cccs1`, the inhibition in the assay with Hepatovirus A [2] came out at 25%.

On to `O=C(Oc1cncc(Cl)c1)c1ccc(-c2cc(C(F)(F)F)ccc2Cl)o1`, for which the inhibition in the assay on Hepatovirus A [1] stood at 36%; in the assay with Hepatovirus A [2] it was 76%.

As to `O=C(Oc1cncc(Cl)c1)c1ccc2ccccc2c1`, the inhibition in the assay with Hepatovirus A [1] was found to be 35%; in the assay on Hepatovirus A [2] it was 23%.

For `O=C(Oc1cncc(Cl)c1)c1cc(F)c(Cl)nc1Cl`, the inhibition with Hepatovirus A [1] was 19%; in the assay with Hepatovirus A [2], 44%.

As for `O=C(Oc1cncc(Cl)c1)c1cc2ccccc2[nH]1`, the results for the inhibition in the assay on Hepatovirus A [1] and in the assay with Hepatovirus A [2] were 58% and 80%, respectively.

Regarding `O=C(Oc1cncc(Cl)c1)c1cnc2cc(C(F)(F)F)ccc2c1O`, the inhibition with Hepatovirus A [2] was less than 10%.

In the case of `O=S(=O)(Nc1cccnc1)c1cccs1`, in the assay on Hepatovirus A [2], the inhibition is less than 10%.

Consider `O=C(/C=C/c1ccccc1)Oc1cncc(Cl)c1`, for which the results for the inhibition in the assay with Hepatovirus A [1] and in the assay with Hepatovirus A [2] were 53% and more than 90%, respectively.

Consider `O=C(OCc1cncc(Br)c1)c1ccco1`, for which the inhibition in the assay on Hepatovirus A [2] was determined as 67%.

`O=C(Nc1cccnc1)c1cccs1`: the inhibition in the assay with Hepatovirus A [2] was less than 10%.

Consider `Clc1cncc(OCc2ccco2)c1`, for which, in the assay on Hepatovirus A [2], the inhibition is less than 10%.

With `O=C(Oc1cncc(Cl)c1)c1cccc(Cl)c1`, the inhibition with Hepatovirus A [1] was 50%; in the assay with Hepatovirus A [2], 29%.

As to `O=C(Nc1ccc(Cl)cn1)c1cccs1`, in the assay on Hepatovirus A [2], the inhibition was less than 10%.

For `O=C(Oc1cncc(Cl)c1)c1cccc2ccccc12`, the inhibition is 30% with Hepatovirus A [1] and more than 90% in the assay on Hepatovirus A [2].

Consider `O=C(Oc1cncc(Cl)c1)c1ccc(F)cc1`, for which the inhibition in the assay with Hepatovirus A [1] is 45%; with Hepatovirus A [2], more than 90%.

For `O=C(Oc1cncc(Cl)c1)c1ccoc1`, in the assay with Hepatovirus A [2], the inhibition was more than 90%.

`O=C(Nc1ccncc1)c1cccs1` had an inhibition in the assay on Hepatovirus A [2] of less than 10%.

In the assay on Hepatovirus A [2], `O=C(Nc1ccccn1)c1cccs1` returned an inhibition of less than 10%.

With `COc1ccc(C(=O)Oc2cncc(Cl)c2)cc1`, in the assay with Hepatovirus A [2], the inhibition is 85%.

As to `O=C(Oc1cncc(Cl)c1)c1cn[nH]c1`, the inhibition came to 21% in the assay on Hepatovirus A [1] and 56% with Hepatovirus A [2].

As to `O=C(Oc1ccccn1)c1cccs1`, the results for the inhibition in the assay on Hepatovirus A [1] and with Hepatovirus A [2] were 8% and 89%, respectively.

In the case of `Cc1cccc(OC(=O)c2cccs2)n1`, the inhibition with Hepatovirus A [1] was less than 10%; in the assay with Hepatovirus A [2] it was 91%.

`O=C(Oc1cccc(Cl)n1)c1cccs1` displayed an inhibition in the assay on Hepatovirus A [2] of 16%.

In turn, `O=C(Oc1cncc(Cl)c1)c1cnccn1` displayed an inhibition with Hepatovirus A [2] of 22%.

Take `O=C(Oc1cccc(Cl)c1)c1ccco1`: in the assay on Hepatovirus A [2], the inhibition turned out to be 11%.

In turn, `COc1ccc(C(=O)Oc2cncc(Cl)c2)cc1OC` registered an inhibition in the assay with Hepatovirus A [2] of 59%.

In the assay with Hepatovirus A [2], `O=C(Oc1ccco1)c1cccnc1` showed an inhibition of more than 90%.

For `O=C(Oc1cncc(Cl)c1)c1ccc(-c2ccc(Cl)cc2[N+](=O)[O-])o1`, the inhibition with Hepatovirus A [2] turned out to be 40%.

In the case of `O=C(Oc1cncc(Cl)c1)c1ccc(-c2ccccc2[N+](=O)[O-])o1`, the inhibition in the assay with Hepatovirus A [2] was determined as 37%.

In the assay on Hepatovirus A [2], `O=C(Nc1ccc(F)cn1)c1cccs1` had an inhibition of less than 10%.

Turning to `O=C(Oc1cncc(Cl)c1)c1cc2ccccc2oc1=O`, in the assay on Hepatovirus A [2], the inhibition is 75%.

For the compound `O=C(Cc1cccnc1)c1cccs1`, in the assay on Hepatovirus A [2], the inhibition turned out to be 10%.

The compound `O=C(Oc1cncc(Cl)c1)c1ccc2[nH]nnc2c1` had an inhibition in the assay with Hepatovirus A [2] of more than 90%.

As for `Cc1ccccc1C(=O)Oc1cncc(Cl)c1`, the inhibition with Hepatovirus A [2] was found to be 82%.

Turning to `O=C(Nc1cccnc1Cl)c1cccs1`, the inhibition in the assay on Hepatovirus A [2] is less than 10%.

With `Cc1ccc(OC(=O)c2cccs2)cn1`, the inhibition in the assay on Hepatovirus A [2] was 23%.

`Cc1ccc(OC(=O)c2cccs2)nc1`: in the assay with Hepatovirus A [2], the inhibition was determined as 12%.

Take `O=C(Oc1cccnc1Cl)c1cccs1`: the inhibition with Hepatovirus A [2] was found to be 11%.
